Measured values: US10473645B2, “Methods for identifying a receptor for a ligand and uses thereof” (UNIVERSITE DE GENEVE, priority 2014, dated 2019)

Key:
[1] = test system: Olfr1377; conditions: expressed in HEK cells; previously shown; read-out: EC50 as agonist of Olfr1377; cited from earlier work
[2] = test system: Olfr171-expressing neurons; assay: pS6 immunolabeling with OR in situ hybridization after odorant exposure; set-up: species or system mouse; conditions: 5% odorant, 60 minutes, in vivo
Method: In order to independently validate the identity of an acetophenone receptor obtained with the RNAseq approach, the potential colocalization following acetophenone exposure of a neuronal activity marker (the phosphorylated ribosomal protein S6 (pS6) (Knight et al., 2012, Cell, 151, 1126-1137) and specific olfactory receptors were evaluated. To this aim, in-situ hybridizations were performed on sections of olfactory tissue with probes targeting receptor mRNAs followed by immunolabeling of pS6. The probes used were directed against the transcripts of most of the ORs determined as responsive including Olfr983 transcripts (encoding a known acetophenone receptor), Olfr171 transcripts (encoding a known ethyl isobutyrate receptor), and Olfr145 transcripts, encoding a newly identified receptor by RNAseq. Before analysis, mice were exposed to either 5% acetophenone, 5% ethyl isobutyrate, or a negative control condition for 60 minutes. […] 66% (Olfr983) and 70% (Olfr145) of the neurons were positive for pS6 after acetophenone exposure, while only 11% of the neurons expressing Olfr171 were positive for pS6 after exposure to this compound.

[3] = target: T1, Olfr556 (Mus musculus, UniProt B2RRG2); assay: OR transcript level by RT-qPCR after in vivo odorant exposure; set-up: from tissue; host or cells: main olfactory epithelium of exposed mice; key to olfr556 candidate OR (RNAseq) confirmed by qPCR: The transcript downregulation of 21 out of the 26 olfactory receptor candidates obtained by RNAseq was confirmed by qPCR; false RNAseq positive candidates, namely OR candidates for which in fact mRNA was not downregulated following acetophenone exposure; conditions: for Olfr556 mRNA level relative to unexposed controls: 5% odorant, 5 hours, in vivo, RT-qPCR
T1 sequence (B2RRG2 1-324): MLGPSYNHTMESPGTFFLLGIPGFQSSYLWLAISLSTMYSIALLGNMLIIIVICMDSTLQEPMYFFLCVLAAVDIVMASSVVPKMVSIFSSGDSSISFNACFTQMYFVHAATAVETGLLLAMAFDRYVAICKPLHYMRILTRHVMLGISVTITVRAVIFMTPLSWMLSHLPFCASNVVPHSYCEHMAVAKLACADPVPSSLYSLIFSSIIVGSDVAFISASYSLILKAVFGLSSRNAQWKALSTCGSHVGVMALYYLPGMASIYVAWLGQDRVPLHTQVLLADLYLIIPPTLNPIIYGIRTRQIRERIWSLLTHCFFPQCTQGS
Method: (§1) In vivo exposure to odorant: Starting 48 h before experiments, mice were habituated to pure DMSO on a cotton ball. 200 μl were pipetted directly onto the cotton and placed in the cage, replacing any cotton that was already in the cage for nest-making purposes.
On the day of the experiment, mice receiving odorants were transferred to a different room, where they were exposed to a cotton ball on which 200 μl of odorant diluted in pure DMSO were deposited. […] […] If a number of different odorants were tested in the same experiment, a different overpressurized room would always be used for each odorant to avoid odor cross-contamination.
(§2) After odorant exposure, mice were killed by cervical dislocation and immediately decapitated. The main olfactory epithelia (MOE), were harvested in their entirety and transferred to a tube containing 600 μl of lysis buffer and β-mercaptoethanol (RNAeasy kit, Qiagen, following the manufacturer protocol) and a 0.5 cm diameter steel ball, and then put on ice. Samples were then homogenized using a FastPrep®-24 instrument (MP Biomedicals) at 6 m/s for 30 s and left on ice. RNA extraction was performed on all samples in parallel using the Qiagen RNeasy Mini® kit following the manufacturer's instructions. Two DNase treatments were performed on all samples: first using the Qiagen RNase-Free DNase Set® and then using the Life Technologies Ambion DNase I® kit. RNA samples were then aliquoted and stored at −80° C.
RNA concentrations were determined using an Amersham Ultrospec® 3100 Pro spectrophotometer, and RNA quality was evaluated with an Agilent Technologies 2100 Bioanalyzer®. Each reverse transcription was performed with 0.5 μg RNA using the Takara Primescript® kit, in a final volume of 10 μl. Primers for reverse transcription were equal mixtures of poly-T nucleotides and random hexamers. Negative controls (omitting the reverse transcriptase enzyme) were performed for each sample. 1/14th of the cDNA preparation was used for each triplicated qPCR reaction.
qPCR Ct values were analyzed using an in-house developed Microsoft Excel® macro file. Triplicate values were compared and outliers (values with a difference higher than 0.5 Ct to their nearest neighbor) were discarded. The number of conditions with an outlying value was always less than 10% of the total number of conditions. Ct values were converted to quantities relative to the maximum for each given gene. Selected reference genes were then analyzed for variance using the geNorm algorithm. All values were normalized with the olfactory tissue-specific genes Omp and Adcy3. β-Actin was used as a non-tissue-specific reference gene to control for differences in dissection between samples. […]

[4] = test system: Olfr1377; assay: as above; set-up: species or system mouse; key to olfr1377 candidate OR (RNAseq) confirmed by qPCR: The transcript downregulation of 21 out of the 26 olfactory receptor candidates obtained by RNAseq was confirmed by qPCR; false RNAseq positive candidates, namely OR candidates for which in fact mRNA was not downregulated following acetophenone exposure; conditions: for Olfr1377 mRNA level relative to unexposed controls: 5% odorant, 5 hours, in vivo, RT-qPCR
Method: as §1
(§3) On the day of the experiment, mice receiving odorants were transferred to a different room, where they were exposed to a cotton ball on which 200 μl of odorant diluted in pure DMSO were deposited. Exposures started in the morning between 8 and 10 am (that is two hours after lights were on) and mice were killed and dissected between 1 and 3 pm. […] If a number of different odorants were tested in the same experiment, a different overpressurized room would always be used for each odorant to avoid odor cross-contamination.
as §2
(§4) RNA concentrations were determined using an Amersham Ultrospec® 3100 Pro spectrophotometer, and RNA quality was evaluated with an Agilent Technologies 2100 Bioanalyzer®. […]
(§5) qPCR Ct values were analyzed using an in-house developed Microsoft Excel® macro file. […] Ct values were converted to quantities relative to the maximum for each given gene. Selected reference genes were then analyzed for variance using the geNorm algorithm. […]

[5] = test system: Olfr983; assay: as above; set-up: species or system mouse; key to olfr983 candidate OR (RNAseq) confirmed by qPCR: The transcript downregulation of 21 out of the 26 olfactory receptor candidates obtained by RNAseq was confirmed by qPCR; false RNAseq positive candidates, namely OR candidates for which in fact mRNA was not downregulated following acetophenone exposure; conditions: for Olfr983 mRNA level relative to unexposed controls: 5% odorant, 5 hours, in vivo, RT-qPCR
Method: as §1, §3, §2, §4, §5

CC(=O)c1ccccc1 [acetophenone]
EC50 [1]: < 50 µM
fraction of Olfr171-expressing neurons positive for pS6 [2]: 11%
olfr556 candidate OR (RNAseq) confirmed by qPCR ([3]; 5% acetophenone exposure): y
Olfr556 mRNA level relative to unexposed controls [3]: decrease
Olfr556 mRNA level relative to unexposed controls ([3]; listed as Acetophenone): downregulates
olfr1377 candidate OR (RNAseq) confirmed by qPCR ([4]; 5% acetophenone exposure): y
Olfr1377 mRNA level relative to unexposed controls [4]: decrease
Olfr1377 mRNA level relative to unexposed controls ([4]; listed as Acetophenone): downregulates
olfr983 candidate OR (RNAseq) confirmed by qPCR ([5]; 5% acetophenone exposure): y
Olfr983 mRNA level relative to unexposed controls [5]: decrease
Olfr983 mRNA level relative to unexposed controls ([5]; listed as Acetophenone): downregulates
